Tests used:
[1] = system: IRS-1; assay: IRS-1 Tyr612 phosphorylation, immunoprecipitation/western blotting in dermal fibroblasts; format: cell-based, rat
Procedure: (§1) Primary dermal fibroblasts were obtained from dorsal skin of female Goto Kakizaki (GK, age 12-15 months) rats, a model for non-obese type 2 diabetes, and their Wistar control counterparts. After sterilization in povidine solution, rat skin was washed in sterile water and rinsed in 70% ethanol in PBS. Epidermis and dermis were separated following overnight incubation in 0.25% trypsine/EDTA at 4 C. Dermis was cut into small pieces and incubated in Dulbecco's modified Eagle medium (DMEM; Invitrogen) containing collagenase (250 U/ml; Sigma) for thirty min at 37 C in 5% CO2 with constant agitation. The sections were triturated vigorously to release fibroblasts, which were collected by centrifugation. The cell pellet was washed two times with PBS, re-suspended in complete medium (DMEM supplemented with 10% fetal calf serum, penicillin (100 U/ml), streptomycin (100 μg/ml)), 2 mM L-glutamine and 10 mM HEPES) and then cultured under a standard condition.
A hypercortisolemic state was mimicked by exposing control fibroblasts to dexamethasone (Dexa, Sigma) administered at 20 ng/ml every other day for a duration of 8 days. Similarly, the state of low-grade inflammation in fibroblasts was recapitulated experimentally by exposing these cells to TNF-α (4 ng/ml every day for 4 days). […] The concentration of IGF-1 (50 ng/ml, Peprotech) was determined by prior dose response experiment.
Levels/activities of key intracellular molecules in the IGF-1 signaling cascade including IRS-1, IRS-1 Tyr-p-612, PI3K-p85α, IRS-1 Ser-p (307), PI3K, Akt, p-Akt, INK and p-JNK were assessed using western blotting/immunoprecipitation and commercially available ELISA-based assays.
Ice-cold radioimmunoprecipitation assay (RIPA) buffer was used for the extraction of proteins from fibroblasts. Immunoprecipitation was achieved by incubating cell homogenates with anti-IRS-1 antibody overnight at 4° C. followed by the addition of protein A/G-Agarose for additional two hours. Immunoprecipitates were separated using spin-collection filters (Cytosignal), washed once with RIPA buffer/3× with PBS and then elutated by the addition of Laemmli buffer. […] Antigen-antibody complexes were visualized by an enhanced chemiluminescence system on BioMax Light Film (Kodack) and then the densitometry was analyzed using Quantity One 1-D image software (BioRad, GS 800). All densitometry data were corrected for equal loading using the house keeping gene β-actin and they were expressed as fold change vs. control.

[2] = system: PI3K; assay: PI3K ELISA kinase assay on fibroblast lysates; format: cell-based, rat; details: diabetic, TNF-α- or dexamethasone-exposed cells; co-exposure to EUK-134
Procedure: as §1
(§2) A hypercortisolemic state was mimicked by exposing control fibroblasts to dexamethasone (Dexa, Sigma) administered at 20 ng/ml every other day for a duration of 8 days. […] The concentration of IGF-1 (50 ng/ml, Peprotech) was determined by prior dose response experiment.
PI3K activity was measured using PI3K ELISA (Echelon Biosciences Inc). […]

[3] = system: Akt; assay: Akt phosphorylation, western blotting in dermal fibroblasts; format: cell-based, rat; details: diabetic, TNF-α- or dexamethasone-exposed cells; EUK-134; western blot
Procedure: as §1, with “The cell pellet was washed two times with PBS, re-suspended in complete medium (DMEM supplemented with 10% fetal calf serum, penicillin (100 U/ml), streptomycin (100 μg/ml)), 2 mM L-glutamine and 10 mM HEPES) and then cultured under a standard condition.” left out
as §2
Levels/activities of key intracellular molecules in the IGF-1 signaling cascade including IRS-1, IRS-1 Tyr-p-612, PI3K-p85α, IRS-1 Ser-p (307), PI3K, Akt, p-Akt, INK and p-JNK were assessed using western blotting/immunoprecipitation and commercially available ELISA-based assays. […]

[4] = system: dermal fibroblasts; assay: Collagen gel contraction assay with fibroblasts; format: cell-based, rat; details: diabetic, TNF-α- or dexamethasone-exposed cells; EUK-134
Procedure: as §1, §2
The ability of fibroblasts to migrate in response to IGF-I in each of our models of oxidative stress-induced IGF-1 resistance was also evaluated. […]

[5] = Rapid insulin sensitivity test (RIST) with IGF-1 instead of insulin; format: in vivo, rat; details: diabetic/hypercortisolemic rats, chronic administration of antioxidant
Procedure: (§3) All animal procedures were performed in accordance with the NIH Guidance for the Care and Use of Laboratory Animals. The current study used, respectively the GK and Dexamethasone-treated rats as models for diabetes and hypercortisolemia. Dexamethasone was administered subcutaneously at a dose of 2.5 μg/kg body weight in the morning (8:00 AM) and in the evening (8:00 PM) for a duration of four weeks before wounding and this form of therapy continued during the course of healing. […] Weight and age-matched female Wistar rats (Kuwait University breeding colony) served as the corresponding controls. All of the animals were maintained under standard conditions with 12 hours on/off light cycle, commercial diet, and water ad libitum. GK rats destined for wounding were initially matched with regard to body weight (e.g., 230 to 250 g), and plasma levels of glucose, free fatty acids and insulin. These indices are commonly used to reflect the severity of the diabetic state.
(§4) Animals used for IGF-1 sensitivity (n=6/group) and wound healing (n=8) studies were partitioned into five study groups including control, diabetic, hypercortisolemic, diabetic+EUK and hypercortisolemic+EUK. The EUK-134 was administered for duration of four weeks before wound induction and it continued during the course of healing.
IGF-1 sensitivity in control, diabetic and hypercortisolemic animals was determined using the rapid insulin sensitivity test (RIST) with IGF-1 (200 μg/kg BW) infused instead of insulin. The RIST index is the amount of glucose per kg body weight required to maintain euglycemia following a bolus of insulin (50 mU/kg BW).

[6] = system: excisional wounds; assay: Full-thickness excisional wound healing, 7 days; format: in vivo, rat
Procedure: as §3, §4
Animals derived from various experimental groups were anesthetized by ip, injection of 90 mg ketamine+10 mg xylazine/kg body weight, and their back skin was shaved, depilated with Nair and cleaned with 70% alcohol. Six bilateral full-thickness excisional wounds (8 mm in diameter) at equidistant from midline were created on the dorso-rostral back skin. Wounds were separated by a minimum of 1 cm of uninjured skin. […] The wound area was analyzed using Adobe PhotoShop (version 7.0; Adobe Systems) and the percentage of wound closure was derived by the following formula: (1−[current wound size/initial wound size])×100.

PI3K enzymatic activity [2]: partially restored
SMILES: COc1cccc(C=NCCN=Cc2cccc(OC)c2[O-])c1[O-].[Cl-].[Mn+3] [EUK-134]
inhibition of IGF-1-induced IRS-1 Tyr612 phosphorylation ([1]; diabetic fibroblasts or normal fibroblasts exposed to TNF-α or dexamethasone, EUK-134): ameliorates the inhibition of IRS-1 phosphorylation
common defect in IGF-1 signaling ([1]; fibroblasts with diabetic, inflammatory or hypercortisolemia phenotypes, ROS suppressors): correct the common defect in IGF-1 signaling
Akt phosphorylation in response to IGF-1 [3]: partially restored
contractility in collagen gel assay [4]: partially restores this contractility to control levels
improvement of glucose metabolism in response to bolus injection of IGF-1 [5]: about 20%
wound healing ([6]; diabetic rats, treatment with EUK-134 and/or IGF-1): heal as rapidly as those on control rats
healing rates of wounds ([6]; diabetic/hypercortisolemic rat wounds, antioxidant administered): statistically indistinguishable from control rat wounds treated with IGF-1 alone

— patent US8637461B2, “Method of diagnosing and treating oxidative stress-impaired wound healing” (Kuwait University, priority 2011, dated 2014)
